Data published in paper PMC9943626, “CS27109, A Selective Thyroid Hormone Receptor-β Agonist Alleviates Metabolic-Associated Fatty Liver Disease in Murine Models” (International Journal of Endocrinology, 2023).

Tests used:
PK in the mouse = type: in vivo, C57/B6 mouse
Experimental: Blood was collected for each mouse 0.5, 1, 2, 3, 4, 6, 8, 24, and 30 hours (H) after compound administration. Then, the serum was isolated and an extractant (containing 200 ng/ml methanol) was added to the serum. Samples were assessed by liquid chromatography-tandem mass spectrometry (LC-MS/MS) according to the standard procedure.

THR-β = molecular target: T1, THR-β (Homo sapiens, UniProt P10828); assay: Luciferase reporter gene assay, THR-β; type: cell-based
T1 construct: expressed in transfected cells; host or cells: CV-1 cells
T1 sequence (P10828 1-461): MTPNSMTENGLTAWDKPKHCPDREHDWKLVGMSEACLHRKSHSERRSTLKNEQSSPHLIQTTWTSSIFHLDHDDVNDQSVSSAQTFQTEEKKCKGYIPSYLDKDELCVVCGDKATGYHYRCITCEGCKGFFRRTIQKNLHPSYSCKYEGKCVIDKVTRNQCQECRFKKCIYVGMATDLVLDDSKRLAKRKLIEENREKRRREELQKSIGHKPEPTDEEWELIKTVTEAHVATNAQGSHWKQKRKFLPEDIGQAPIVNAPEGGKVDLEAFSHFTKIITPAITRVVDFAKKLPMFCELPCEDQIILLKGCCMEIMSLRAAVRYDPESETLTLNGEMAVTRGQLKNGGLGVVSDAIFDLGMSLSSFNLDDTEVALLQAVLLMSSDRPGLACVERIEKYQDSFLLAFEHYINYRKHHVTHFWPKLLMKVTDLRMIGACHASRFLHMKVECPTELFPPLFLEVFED
Experimental: (§1) We applied a luciferase reporter gene assay to assess the capacity of drugs to bind and activate THRα or THRβ. First, we seeded 5 × 10^3 CV-1 cells for each well into 96-well plates and incubated for 24 hours at 37°C and 5% CO2. We then transiently transfected mixed THR-α or THR-β expression plasmids (with DR4) into liposomes with a firefly luciferase reporter (2 : 2 : 1, THRα : DR4 : GFP or 3 : 3 : 1, THRβ : DR4 : GFP) and then mixed with the X-tremeGENE HP DNA Transfection Reagent (Roche, Basel, BS, Switzerland). […] We then removed the medium and added 60 μl of 1x Cell Culture Lysis and 5x reagent (Promega, E153A) to each well. […] Finally, we added 30 μl of Luciferase Assay Buffer (Promega, E151A) to each well to detect Luci values. 50% activation (AC50) for each compound was calculated based on these values.

hERG = molecular target: T2, hERG (Homo sapiens, UniProt Q12809); assay: hERG test (QPatch HTX); type: cell-based
T2 construct: Ice Bioscience Co., Ltd. (Beijing, China)
Experimental: hERG test was performed by Ice Bioscience Co., Ltd. (Beijing, China) using the QPatch HTX method according to the manufacturer's instruction. 5 doses of CS27109 were tested, including […], each one with a duplicate. The tested values (current) were normalized to the negative control (0.1% DMSO), and IC50 was calculated based on the normalized data.

THR-α = molecular target: T3, THR-α (Homo sapiens, UniProt P10827); assay: Luciferase reporter gene assay, THR-α; type: cell-based; conditions: CV-1 cells transfected with THR-α, DR4 luciferase reporter, 22 hours
T3 construct: expressed in transfected cells; host or cells: CV-1 cells
T3 sequence (P10827 1-410 isoform P10827-2): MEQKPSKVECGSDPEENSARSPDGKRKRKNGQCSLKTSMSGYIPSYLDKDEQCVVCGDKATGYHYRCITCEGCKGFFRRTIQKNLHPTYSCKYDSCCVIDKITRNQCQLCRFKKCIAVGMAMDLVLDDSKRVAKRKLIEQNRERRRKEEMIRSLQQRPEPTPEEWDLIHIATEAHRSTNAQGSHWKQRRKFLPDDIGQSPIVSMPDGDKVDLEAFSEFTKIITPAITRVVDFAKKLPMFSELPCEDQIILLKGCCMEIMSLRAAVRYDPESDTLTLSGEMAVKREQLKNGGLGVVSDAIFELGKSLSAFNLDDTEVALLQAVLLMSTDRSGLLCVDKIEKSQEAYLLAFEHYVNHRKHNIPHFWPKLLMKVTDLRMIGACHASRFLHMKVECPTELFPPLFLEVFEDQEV
Experimental: as §1

WD + CCL4 model = test system: WD + CCL4 model; design: method as in earlier work; conditions: CCL4 induction started at week 8 (8 weeks in total), drug began 4-week after CCL4 induction; CS27109 alone; ref our another study (manuscript is submitting to another journal); cited from earlier work

T2 sequence (Q12809 whole entry): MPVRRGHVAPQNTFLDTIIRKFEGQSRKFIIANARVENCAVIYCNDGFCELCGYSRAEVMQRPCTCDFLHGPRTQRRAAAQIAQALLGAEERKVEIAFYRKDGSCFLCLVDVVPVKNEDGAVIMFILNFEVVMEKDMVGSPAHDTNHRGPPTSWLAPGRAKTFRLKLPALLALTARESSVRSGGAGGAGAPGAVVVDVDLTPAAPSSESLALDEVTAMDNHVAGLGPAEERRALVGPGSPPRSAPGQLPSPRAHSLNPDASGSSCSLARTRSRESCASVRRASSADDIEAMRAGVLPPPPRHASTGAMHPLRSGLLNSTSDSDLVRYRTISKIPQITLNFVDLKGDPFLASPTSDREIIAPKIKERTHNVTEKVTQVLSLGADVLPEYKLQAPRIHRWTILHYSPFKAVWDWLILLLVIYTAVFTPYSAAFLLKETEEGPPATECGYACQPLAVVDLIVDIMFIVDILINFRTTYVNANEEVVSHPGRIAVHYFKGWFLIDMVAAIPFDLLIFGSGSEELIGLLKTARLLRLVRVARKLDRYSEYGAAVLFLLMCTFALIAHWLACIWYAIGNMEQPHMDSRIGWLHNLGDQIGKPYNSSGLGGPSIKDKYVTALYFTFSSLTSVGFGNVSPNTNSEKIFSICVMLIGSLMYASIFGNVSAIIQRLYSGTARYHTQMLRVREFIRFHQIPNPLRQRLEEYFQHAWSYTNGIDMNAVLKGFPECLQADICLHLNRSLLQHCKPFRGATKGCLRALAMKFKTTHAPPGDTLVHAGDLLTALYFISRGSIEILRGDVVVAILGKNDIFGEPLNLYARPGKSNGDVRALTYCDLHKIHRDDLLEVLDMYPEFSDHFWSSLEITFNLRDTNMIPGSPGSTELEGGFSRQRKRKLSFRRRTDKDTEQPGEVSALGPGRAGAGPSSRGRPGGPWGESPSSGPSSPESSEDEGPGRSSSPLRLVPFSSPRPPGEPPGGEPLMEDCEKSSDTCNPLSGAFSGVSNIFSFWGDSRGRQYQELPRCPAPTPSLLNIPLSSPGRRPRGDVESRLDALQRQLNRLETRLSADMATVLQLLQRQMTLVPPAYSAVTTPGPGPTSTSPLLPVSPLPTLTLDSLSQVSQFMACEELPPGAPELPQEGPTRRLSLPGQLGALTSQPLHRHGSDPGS

PK properties in mouse (comparison of CS27109 and MGL3196) (PK in the mouse; 10 mg/kg oral gavage once): comparative PK properties
AUC in mouse relative to AUC in rat (PK in the mouse; 10 mg/kg oral, mouse higher than rat): 1.5 fold
AC50 (THR-β; CV-1 cells transfected with THR-β, DR4 luciferase reporter, 22 hours): 1.98 µM
Selectivity (α/β) (THR-β; THR-α/THR-β AC50 ratio): 12.67
AC50 (THR-α): 25.1 µM
Compound: N#Cc1nn(-c2cc(Br)c(Oc3n[nH]c(=O)c4ccccc34)c(Br)c2)c(=O)[nH]c1=O [CS27109]
IC50 (hERG): > 30 µM
hERG test result (hERG): cardiac tolerable
liver fibrosis (WD + CCL4 model): sufficient to reverse liver fibrosis
